# In patent US8192761B2, “Granular preparation containing biguanide compound” (Dainippon Sumitomo Pharma Co., Ltd., priority 2005, dated 2012):
# Assay: Stability testing: appearance (solidification) of fine granules after storage in tightly sealed glass containers
# Assay type: physicochemical
# Details: additive added to metformin hydrochloride fine granules, 40° C.
# Experimental: Using fine granules obtained in Examples 1-14 and Comparative Examples 1-16, a stability testing was performed. Fine granules (5 g) were each placed in glass containers, which were tightly sealed and stored at 40° C. for 1 week.
# Appearance of metformin hydrochloride fine granules after storage at 40° C. for 1 week
row,Molecule,solidification-preventive effect
1,O=P([O-])([O-])O.[Ca+2] [anhydrous dibasic calcium phosphate],did not show a solidification-preventive effect
2,O=C([O-])[O-].[Ca+2] [calcium carbonate],did not show a solidification-preventive effect
3,[Ca+2].[Cl-].[Cl-] [calcium chloride],a solidification-preventive effect was observed
4,OC[C@H]1O[C@@H](O[C@H]2[C@H](O)[C@@H](O)C(O)O[C@@H]2CO)[C@H](O)[C@@H](O)[C@H]1O (stereo partly drawn) [lactose],did not show a solidification-preventive effect
5,calcium stearate,did not show a solidification-preventive effect
6,magnesium stearate,a solidification-preventive effect was observed
